Laboratory results as given in the kinase profiling compilation of Christmann-Franck et al. (2016).
Blank lines part the entries; values can stand above or below the compound they belong to.

Key:
Assay in all cases: KINOMEscan competition binding
Conditions in all cases: compound 10.0 µM
MAPK4 (human) = MAPK4 (human) (UniProt P31152)
CLK4 (human) = CLK4 (human) (UniProt Q9HAZ1)
[1] = test system: ABL1 (human), P00519 [Y253F]
MAP4K1 (human) = MAP4K1 (human) (UniProt Q92918)
PRPF4B (human) = PRPF4B (human) (UniProt Q13523)
ANKK1 (human) = ANKK1 (human) (UniProt Q8NFD2)
[2] = target: JAK2 JH1 catalytic (human) (UniProt O60674)
RIPK2 (human) = RIPK2 (human) (UniProt O43353)
LATS1 (human) = LATS1 (human) (UniProt O95835)
MST4 (human) = MST4 (human) (UniProt Q9P289)
Chain of MST4 (human) (Q9P289 whole entry, looked up): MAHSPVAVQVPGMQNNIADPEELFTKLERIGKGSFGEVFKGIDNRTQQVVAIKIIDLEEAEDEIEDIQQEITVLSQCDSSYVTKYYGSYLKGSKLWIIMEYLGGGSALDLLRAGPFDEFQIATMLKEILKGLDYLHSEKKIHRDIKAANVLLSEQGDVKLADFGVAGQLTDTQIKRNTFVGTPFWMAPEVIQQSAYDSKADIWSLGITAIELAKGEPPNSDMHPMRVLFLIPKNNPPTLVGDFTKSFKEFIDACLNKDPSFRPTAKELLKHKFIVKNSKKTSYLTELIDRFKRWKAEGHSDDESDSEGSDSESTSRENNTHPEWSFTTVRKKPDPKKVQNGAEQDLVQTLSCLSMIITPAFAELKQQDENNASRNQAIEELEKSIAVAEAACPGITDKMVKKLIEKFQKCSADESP

MAP3K7 (human) = MAP3K7 (human) (UniProt O43318)
Chain of MAP3K7 (human) (O43318 whole entry, looked up): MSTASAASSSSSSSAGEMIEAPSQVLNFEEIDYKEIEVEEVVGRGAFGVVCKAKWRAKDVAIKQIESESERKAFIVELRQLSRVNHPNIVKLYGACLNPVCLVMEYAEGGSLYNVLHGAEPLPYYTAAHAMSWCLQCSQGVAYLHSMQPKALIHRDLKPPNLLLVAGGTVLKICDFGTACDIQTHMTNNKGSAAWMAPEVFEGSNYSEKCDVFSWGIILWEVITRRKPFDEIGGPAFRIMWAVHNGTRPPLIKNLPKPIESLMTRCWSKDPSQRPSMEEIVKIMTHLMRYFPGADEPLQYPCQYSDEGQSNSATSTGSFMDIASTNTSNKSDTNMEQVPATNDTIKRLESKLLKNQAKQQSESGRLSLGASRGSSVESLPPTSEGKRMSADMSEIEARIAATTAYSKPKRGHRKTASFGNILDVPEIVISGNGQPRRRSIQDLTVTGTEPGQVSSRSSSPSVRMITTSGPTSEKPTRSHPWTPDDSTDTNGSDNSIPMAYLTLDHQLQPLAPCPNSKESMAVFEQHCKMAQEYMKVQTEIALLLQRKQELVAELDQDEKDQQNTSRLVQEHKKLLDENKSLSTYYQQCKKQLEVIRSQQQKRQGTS

ABL2 (human) = ABL2 (human) (UniProt P42684)
MAP3K11 (human) = MAP3K11 (human) (UniProt Q16584)
[3] = test system: MET (human), P08581 [M1250T]
PLK4 (human) = PLK4 (human) (UniProt O00444)
Chain of PLK4 (human) (O00444 whole entry, looked up): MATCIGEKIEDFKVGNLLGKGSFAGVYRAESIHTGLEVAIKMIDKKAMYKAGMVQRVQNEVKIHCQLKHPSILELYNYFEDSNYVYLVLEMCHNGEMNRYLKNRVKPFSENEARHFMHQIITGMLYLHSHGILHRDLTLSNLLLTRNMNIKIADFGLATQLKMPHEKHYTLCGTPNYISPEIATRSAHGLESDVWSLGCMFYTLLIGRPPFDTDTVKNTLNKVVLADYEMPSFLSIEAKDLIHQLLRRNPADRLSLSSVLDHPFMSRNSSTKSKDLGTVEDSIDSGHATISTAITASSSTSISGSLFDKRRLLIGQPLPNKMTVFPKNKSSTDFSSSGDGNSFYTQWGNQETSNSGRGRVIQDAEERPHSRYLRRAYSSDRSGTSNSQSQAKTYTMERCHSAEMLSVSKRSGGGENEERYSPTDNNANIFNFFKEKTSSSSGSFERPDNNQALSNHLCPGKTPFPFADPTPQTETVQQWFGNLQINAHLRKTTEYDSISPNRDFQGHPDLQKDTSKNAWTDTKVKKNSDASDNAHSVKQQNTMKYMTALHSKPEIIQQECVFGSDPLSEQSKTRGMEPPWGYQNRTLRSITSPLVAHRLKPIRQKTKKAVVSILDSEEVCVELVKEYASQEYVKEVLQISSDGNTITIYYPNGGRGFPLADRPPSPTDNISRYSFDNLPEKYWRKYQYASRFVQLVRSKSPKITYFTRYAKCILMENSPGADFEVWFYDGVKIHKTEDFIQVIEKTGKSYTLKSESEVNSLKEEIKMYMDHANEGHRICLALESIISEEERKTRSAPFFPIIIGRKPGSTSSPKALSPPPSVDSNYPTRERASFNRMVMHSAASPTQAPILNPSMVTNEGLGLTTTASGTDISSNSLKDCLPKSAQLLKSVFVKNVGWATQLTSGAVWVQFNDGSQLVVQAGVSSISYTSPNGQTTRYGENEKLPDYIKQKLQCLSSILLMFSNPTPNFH

RPS6KA6 KD2 (human) = RPS6KA6 KD2 (human) (UniProt Q9UK32)
PIK3C2B (human) = PIK3C2B (human) (UniProt O00750)
MARK3 (human) = MARK3 (human) (UniProt P27448)
Chain of MARK3 (human) (P27448 whole entry, looked up): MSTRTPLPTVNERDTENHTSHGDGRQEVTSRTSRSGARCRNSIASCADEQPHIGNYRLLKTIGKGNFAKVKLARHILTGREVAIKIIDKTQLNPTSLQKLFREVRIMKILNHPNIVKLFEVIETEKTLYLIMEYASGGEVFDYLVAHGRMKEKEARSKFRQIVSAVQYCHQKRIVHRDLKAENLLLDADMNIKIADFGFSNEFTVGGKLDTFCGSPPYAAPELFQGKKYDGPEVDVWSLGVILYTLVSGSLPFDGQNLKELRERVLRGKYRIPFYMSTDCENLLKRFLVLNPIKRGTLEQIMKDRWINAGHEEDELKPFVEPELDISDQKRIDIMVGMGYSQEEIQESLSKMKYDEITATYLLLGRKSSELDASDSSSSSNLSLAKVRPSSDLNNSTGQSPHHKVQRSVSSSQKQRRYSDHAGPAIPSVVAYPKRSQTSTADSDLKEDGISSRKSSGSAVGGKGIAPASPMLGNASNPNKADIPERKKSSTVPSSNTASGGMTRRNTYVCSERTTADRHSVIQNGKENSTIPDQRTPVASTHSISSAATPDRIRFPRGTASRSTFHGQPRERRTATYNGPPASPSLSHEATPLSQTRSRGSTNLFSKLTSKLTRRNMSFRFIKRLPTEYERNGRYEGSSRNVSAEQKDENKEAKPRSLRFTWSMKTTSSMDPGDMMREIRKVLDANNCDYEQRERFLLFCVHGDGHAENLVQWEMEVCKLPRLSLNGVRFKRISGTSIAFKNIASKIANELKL

MAPK8 (human) = MAPK8 (human) (UniProt P45983)
PTK2 (human) = PTK2 (human) (UniProt Q05397)
CHEK1 (human) = CHEK1 (human) (UniProt O14757)
BMX (human) = BMX (human) (UniProt P51813)
FES (human) = FES (human) (UniProt P07332)
CSK (human) = CSK (human) (UniProt P41240)
STK35 (human) = STK35 (human) (UniProt Q8TDR2)
PAK2 (human) = PAK2 (human) (UniProt Q13177)
CDK16 (human) = CDK16 (human) (UniProt Q00536)
OXSR1 (human) = OXSR1 (human) (UniProt O95747)
TNK1 (human) = TNK1 (human) (UniProt Q13470)
FGR (human) = FGR (human) (UniProt P09769)
ERN1 (human) = ERN1 (human) (UniProt O75460)
BRSK2 (human) = BRSK2 (human) (UniProt Q8IWQ3)
SYK (human) = SYK (human) (UniProt P43405)
MAPKAPK2 (human) = MAPKAPK2 (human) (UniProt P49137)
PIM3 (human) = PIM3 (human) (UniProt Q86V86)
TNK2 (human) = TNK2 (human) (UniProt Q07912)
[4] = test system: FLT3 (human), P36888 [K663Q]
[5] = target: TYK2 JH1 catalytic (human) (UniProt P29597)
Chain of TYK2 JH1 catalytic (human) (P29597 whole entry, looked up): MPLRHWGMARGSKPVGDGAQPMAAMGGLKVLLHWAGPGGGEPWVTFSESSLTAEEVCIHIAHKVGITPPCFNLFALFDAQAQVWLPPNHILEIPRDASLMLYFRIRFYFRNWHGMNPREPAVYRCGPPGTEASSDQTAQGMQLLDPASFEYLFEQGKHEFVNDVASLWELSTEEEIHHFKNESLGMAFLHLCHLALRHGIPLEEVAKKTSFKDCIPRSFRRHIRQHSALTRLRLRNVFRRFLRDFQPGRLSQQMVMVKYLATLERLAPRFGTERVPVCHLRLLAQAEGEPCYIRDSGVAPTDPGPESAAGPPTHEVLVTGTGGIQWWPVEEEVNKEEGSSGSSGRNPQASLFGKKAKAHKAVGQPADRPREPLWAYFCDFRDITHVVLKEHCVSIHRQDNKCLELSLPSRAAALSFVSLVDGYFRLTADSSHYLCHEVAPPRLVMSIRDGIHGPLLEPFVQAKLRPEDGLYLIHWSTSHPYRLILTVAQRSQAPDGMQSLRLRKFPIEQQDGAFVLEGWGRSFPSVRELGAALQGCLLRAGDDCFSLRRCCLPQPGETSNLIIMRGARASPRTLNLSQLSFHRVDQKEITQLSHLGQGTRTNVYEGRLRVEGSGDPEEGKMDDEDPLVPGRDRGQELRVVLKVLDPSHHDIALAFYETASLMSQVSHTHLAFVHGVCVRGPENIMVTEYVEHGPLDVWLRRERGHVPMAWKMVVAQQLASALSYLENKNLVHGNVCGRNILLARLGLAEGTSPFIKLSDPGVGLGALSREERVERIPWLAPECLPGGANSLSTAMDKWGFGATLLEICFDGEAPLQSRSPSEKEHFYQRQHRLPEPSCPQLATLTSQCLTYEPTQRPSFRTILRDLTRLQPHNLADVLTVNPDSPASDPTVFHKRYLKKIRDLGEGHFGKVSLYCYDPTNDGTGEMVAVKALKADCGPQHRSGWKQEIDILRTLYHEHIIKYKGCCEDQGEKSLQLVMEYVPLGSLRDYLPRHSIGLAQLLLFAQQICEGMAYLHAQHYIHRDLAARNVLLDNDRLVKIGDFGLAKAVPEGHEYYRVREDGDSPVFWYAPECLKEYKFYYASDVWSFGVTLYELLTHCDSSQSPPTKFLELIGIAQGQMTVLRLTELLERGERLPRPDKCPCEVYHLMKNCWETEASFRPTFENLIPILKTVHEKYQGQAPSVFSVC

ACVR2A (human) = ACVR2A (human) (UniProt P27037)
STK38L (human) = STK38L (human) (UniProt Q9Y2H1)
CAMKK2 (human) = CAMKK2 (human) (UniProt Q96RR4)
MAK (human) = MAK (human) (UniProt P20794)

Chain of MAP4K1 (human) (Q92918 whole entry, looked up): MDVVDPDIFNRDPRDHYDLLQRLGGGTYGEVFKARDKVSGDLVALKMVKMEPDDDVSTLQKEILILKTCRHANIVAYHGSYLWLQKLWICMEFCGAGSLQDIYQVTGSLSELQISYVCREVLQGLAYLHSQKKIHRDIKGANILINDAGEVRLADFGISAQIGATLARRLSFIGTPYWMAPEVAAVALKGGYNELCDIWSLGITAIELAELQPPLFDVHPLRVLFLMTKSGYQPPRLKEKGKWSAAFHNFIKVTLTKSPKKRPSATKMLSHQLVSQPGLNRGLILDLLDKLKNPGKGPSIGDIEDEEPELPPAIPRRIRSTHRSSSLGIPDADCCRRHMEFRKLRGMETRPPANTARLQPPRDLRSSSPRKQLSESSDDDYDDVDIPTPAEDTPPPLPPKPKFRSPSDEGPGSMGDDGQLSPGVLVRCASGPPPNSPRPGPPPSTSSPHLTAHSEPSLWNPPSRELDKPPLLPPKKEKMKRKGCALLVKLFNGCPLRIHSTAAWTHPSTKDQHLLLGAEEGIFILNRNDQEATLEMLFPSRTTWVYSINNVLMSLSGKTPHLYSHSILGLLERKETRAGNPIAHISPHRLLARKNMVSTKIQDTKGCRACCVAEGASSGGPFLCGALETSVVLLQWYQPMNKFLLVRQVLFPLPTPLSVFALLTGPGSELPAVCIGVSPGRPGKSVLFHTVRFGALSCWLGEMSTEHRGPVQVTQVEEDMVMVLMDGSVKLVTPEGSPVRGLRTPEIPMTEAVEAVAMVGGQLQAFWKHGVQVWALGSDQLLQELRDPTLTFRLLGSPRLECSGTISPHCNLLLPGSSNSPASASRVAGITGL

kinase still bound, per cent of control (MAPK4 (human)): 100% | kinase still bound, per cent of control (CLK4 (human)): 62% | kinase still bound, per cent of control [1]: 100% | kinase still bound, per cent of control (MAP4K1 (human)): 100% | kinase still bound, per cent of control (PRPF4B (human)): 100% | kinase still bound, per cent of control (ANKK1 (human)): 100% | kinase still bound, per cent of control [2]: 100% | kinase still bound, per cent of control (RIPK2 (human)): 100% | kinase still bound, per cent of control (LATS1 (human)): 100% | kinase still bound, per cent of control (MST4 (human)): 82% | kinase still bound, per cent of control (MAP3K7 (human)): 51% | kinase still bound, per cent of control (ABL2 (human)): 100% | kinase still bound, per cent of control (MAP3K11 (human)): 54% | kinase still bound, per cent of control [3]: 92% | kinase still bound, per cent of control (PLK4 (human)): 69% | kinase still bound, per cent of control (RPS6KA6 KD2 (human)): 83% | kinase still bound, per cent of control (PIK3C2B (human)): 91% | kinase still bound, per cent of control (MARK3 (human)): 100% | kinase still bound, per cent of control (MAPK8 (human)): 94% | kinase still bound, per cent of control (PTK2 (human)): 96% | kinase still bound, per cent of control (CHEK1 (human)): 100% | kinase still bound, per cent of control (BMX (human)): 100% | kinase still bound, per cent of control (FES (human)): 100% | kinase still bound, per cent of control (CSK (human)): 100% | kinase still bound, per cent of control (STK35 (human)): 100% | kinase still bound, per cent of control (PAK2 (human)): 94% | kinase still bound, per cent of control (CDK16 (human)): 39% | kinase still bound, per cent of control (OXSR1 (human)): 70% | kinase still bound, per cent of control (TNK1 (human)): 80% | kinase still bound, per cent of control (FGR (human)): 100% | kinase still bound, per cent of control (ERN1 (human)): 100% | kinase still bound, per cent of control (BRSK2 (human)): 97% | kinase still bound, per cent of control (SYK (human)): 100% | kinase still bound, per cent of control (MAPKAPK2 (human)): 100% | kinase still bound, per cent of control (PIM3 (human)): 95% | kinase still bound, per cent of control (TNK2 (human)): 100% | kinase still bound, per cent of control [4]: 78% | kinase still bound, per cent of control [5]: 99% | kinase still bound, per cent of control (ACVR2A (human)): 100% | kinase still bound, per cent of control (STK38L (human)): 100% | kinase still bound, per cent of control (CAMKK2 (human)): 100% | kinase still bound, per cent of control (MAK (human)): 80%
SMILES: Cc1cnc(-c2cnc(NCCNc3ccc(C#N)cn3)nc2-c2ccc(Cl)cc2Cl)[nH]1

kinase still bound, per cent of control (MAPK4 (human)): 100% | kinase still bound, per cent of control (CLK4 (human)): 99% | kinase still bound, per cent of control [1]: 4.2% | kinase still bound, per cent of control (MAP4K1 (human)): 18% | kinase still bound, per cent of control (PRPF4B (human)): 13% | kinase still bound, per cent of control (ANKK1 (human)): 4.8% | kinase still bound, per cent of control [2]: 25% | kinase still bound, per cent of control (RIPK2 (human)): 69% | kinase still bound, per cent of control (LATS1 (human)): 70% | kinase still bound, per cent of control (MST4 (human)): 35% | kinase still bound, per cent of control (MAP3K7 (human)): 20% | kinase still bound, per cent of control (ABL2 (human)): 1.2% | kinase still bound, per cent of control (MAP3K11 (human)): 5.6% | kinase still bound, per cent of control [3]: 87% | kinase still bound, per cent of control (PLK4 (human)): 0% | kinase still bound, per cent of control (RPS6KA6 KD2 (human)): 83% | kinase still bound, per cent of control (PIK3C2B (human)): 100% | kinase still bound, per cent of control (MARK3 (human)): 28% | kinase still bound, per cent of control (MAPK8 (human)): 23% | kinase still bound, per cent of control (PTK2 (human)): 49% | kinase still bound, per cent of control (CHEK1 (human)): 32% | kinase still bound, per cent of control (BMX (human)): 42% | kinase still bound, per cent of control (FES (human)): 100% | kinase still bound, per cent of control (CSK (human)): 56% | kinase still bound, per cent of control (STK35 (human)): 60% | kinase still bound, per cent of control (PAK2 (human)): 40% | kinase still bound, per cent of control (CDK16 (human)): 0% | kinase still bound, per cent of control (OXSR1 (human)): 58% | kinase still bound, per cent of control (TNK1 (human)): 16% | kinase still bound, per cent of control (FGR (human)): 1.4% | kinase still bound, per cent of control (ERN1 (human)): 51% | kinase still bound, per cent of control (BRSK2 (human)): 1.1% | kinase still bound, per cent of control (SYK (human)): 4.6% | kinase still bound, per cent of control (MAPKAPK2 (human)): 100% | kinase still bound, per cent of control (PIM3 (human)): 30% | kinase still bound, per cent of control (TNK2 (human)): 28% | kinase still bound, per cent of control [4]: 0% | kinase still bound, per cent of control [5]: 3% | kinase still bound, per cent of control (ACVR2A (human)): 41% | kinase still bound, per cent of control (STK38L (human)): 48% | kinase still bound, per cent of control (CAMKK2 (human)): 37% | kinase still bound, per cent of control (MAK (human)): 0.8%
SMILES: O=C1Nc2cc(Br)ccc2/C1=C1/Nc2ccccc2/C1=N\O

kinase still bound, per cent of control (MAPK4 (human)): 100% | kinase still bound, per cent of control (CLK4 (human)): 87% | kinase still bound, per cent of control [1]: 100% | kinase still bound, per cent of control (MAP4K1 (human)): 98% | kinase still bound, per cent of control (PRPF4B (human)): 100% | kinase still bound, per cent of control (ANKK1 (human)): 100% | kinase still bound, per cent of control [2]: 100% | kinase still bound, per cent of control (RIPK2 (human)): 95% | kinase still bound, per cent of control (LATS1 (human)): 100% | kinase still bound, per cent of control (MST4 (human)): 99% | kinase still bound, per cent of control (MAP3K7 (human)): 88% | kinase still bound, per cent of control (ABL2 (human)): 89% | kinase still bound, per cent of control (MAP3K11 (human)): 100% | kinase still bound, per cent of control [3]: 93% | kinase still bound, per cent of control (PLK4 (human)): 99% | kinase still bound, per cent of control (PIK3C2B (human)): 94% | kinase still bound, per cent of control (MARK3 (human)): 100% | kinase still bound, per cent of control (MAPK8 (human)): 100% | kinase still bound, per cent of control (PTK2 (human)): 91% | kinase still bound, per cent of control (CHEK1 (human)): 100% | kinase still bound, per cent of control (BMX (human)): 100% | kinase still bound, per cent of control (FES (human)): 99% | kinase still bound, per cent of control (CSK (human)): 100% | kinase still bound, per cent of control (STK35 (human)): 87% | kinase still bound, per cent of control (PAK2 (human)): 87% | kinase still bound, per cent of control (CDK16 (human)): 15% | kinase still bound, per cent of control (OXSR1 (human)): 100% | kinase still bound, per cent of control (TNK1 (human)): 100% | kinase still bound, per cent of control (FGR (human)): 100% | kinase still bound, per cent of control (ERN1 (human)): 100% | kinase still bound, per cent of control (BRSK2 (human)): 100% | kinase still bound, per cent of control (SYK (human)): 100% | kinase still bound, per cent of control (MAPKAPK2 (human)): 94% | kinase still bound, per cent of control (PIM3 (human)): 83% | kinase still bound, per cent of control (TNK2 (human)): 96% | kinase still bound, per cent of control [4]: 70% | kinase still bound, per cent of control [5]: 100% | kinase still bound, per cent of control (ACVR2A (human)): 87% | kinase still bound, per cent of control (STK38L (human)): 100% | kinase still bound, per cent of control (CAMKK2 (human)): 100% | kinase still bound, per cent of control (MAK (human)): 94%
SMILES: COc1ccc(CNC(=O)Nc2ncc([N+](=O)[O-])s2)cc1
